These are literature values, as cited in patent EP0956866A1, “DRUGS FOR AMELIORATING OPHTHALMIC CIRCULATORY DISTURBANCE” (KIRIN BEER KABUSHIKI KAISHA, priority 1996, dated 1998).

The structures appear in SMILES notation.

For series [1] the following is noted: literature report.
For series [2] the following is noted: disclosed in WO89/10757.

As for `CC1(C)Oc2ccc(C#N)cc2C(N2CCCC2=O)C1O` (stereo not drawn) [cromakalim], the ocular blood flow result in series [1] is on record as “lowers the ocular blood flow”. Besides, the ocular pressure result in series [2] is recorded as “lower the ocular pressure”.
As for `CC(N/C(=N\C#N)Nc1ccncc1)C(C)(C)C` (stereo not drawn) [pinacidil], in series [2], the ocular pressure result was “lower the ocular pressure”.
